From ChEMBL document CHEMBL1201862, “PubChem BioAssay data set” (2004)
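Compound exposure: 48 hours, 5 concentrations, 96-well plates. Abbreviation: GI50, concentration required for 50% inhibition of growth.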 Calls of active or inactive are those of the source. Cut-off read from the data, not from the text of the source: active = GI50 up to about 1.1 µM and inactive = higher.

Columns and labels:
Experiment in all cases: growth of human tumour cells (NCI), 48 h
A498 = tested on: A498
BT-549 = tested on: BT-549
EKVX = tested on: EKVX
HCT-15 = tested on: HCT-15
HOP-92 = tested on: HOP-92
MCF7 = tested on: MCF7
MDA-MB-231 = tested on: MDA-MB-231
MDA-MB-435 = tested on: MDA-MB-435
Malme-3M = tested on: Malme-3M
NCI-H23 = tested on: NCI-H23
NCI-H460 = tested on: NCI-H460
RXF 393 = tested on: RXF 393
SF-539 = tested on: SF-539
SK-MEL-28 = tested on: SK-MEL-28
SNB-19 = tested on: SNB-19
UACC-62 = tested on: UACC-62
NCI-H522 = tested on: NCI-H522
OVCAR-4 = tested on: OVCAR-4
UACC-257 = tested on: UACC-257

| Compound | GI50 (A498) | GI50 (BT-549) | GI50 (EKVX) | GI50 (HCT-15) | GI50 (HOP-92) | GI50 (MCF7) | GI50 (MDA-MB-231) | GI50 (MDA-MB-435) | GI50 (Malme-3M) | GI50 (NCI-H23) | GI50 (NCI-H460) | GI50 (RXF 393) | GI50 (SF-539) | GI50 (SK-MEL-28) | GI50 (SNB-19) | GI50 (UACC-62) | GI50 (NCI-H522) | GI50 (OVCAR-4) | GI50 (UACC-257) |
| --- | --- | --- | --- | --- | --- | --- | --- | --- | --- | --- | --- | --- | --- | --- | --- | --- | --- | --- | --- |
| COc1cc(N(C)C)c(OC)cc1C=C1C=CC=C1 | > 100 µM (inactive) | > 100 µM (inactive) | > 100 µM (inactive) | > 10 µM | 61.8 µM (inactive) | > 100 µM (inactive) | > 100 µM (inactive) | 43.1 µM (inactive) | > 100 µM (inactive) | > 100 µM (inactive) | > 100 µM (inactive) | > 100 µM (inactive) | > 100 µM (inactive) | > 100 µM (inactive) | > 100 µM (inactive) | 82.4 µM (inactive) |  |  |  |
| COc1ccc(-c2nnc(CCCCCCCCc3nnc(-c4ccc(OC)cc4)o3)o2)cc1 | 44.4 µM (inactive) | 16.7 µM (inactive) | > 100 µM (inactive) | > 100 µM | 41.1 µM (inactive) | > 100 µM (inactive) | 18.3 µM (inactive) | > 100 µM (inactive) | > 100 µM (inactive) | > 100 µM (inactive) | > 100 µM (inactive) |  | 63.7 µM (inactive) | > 100 µM (inactive) | 36.4 µM (inactive) |  | 84.3 µM (inactive) | > 100 µM (inactive) | > 100 µM (inactive) |
| O=c1c(-c2ccc(Cl)cc2)nnc2n(Cc3ccccc3)c3ccccc3n12 | 23 µM (inactive) | 22 µM (inactive) | 38.4 µM (inactive) | > 100 µM | 14.7 µM (inactive) | 60.7 µM (inactive) | 20 µM (inactive) | 4.28 µM (inactive) | 39.8 µM (inactive) | 37 µM (inactive) | 33.3 µM (inactive) | 13.2 µM (inactive) | 13.6 µM (inactive) | 51.6 µM (inactive) | 17.7 µM (inactive) |  | 16.8 µM (inactive) | 5.94 µM (inactive) | 51.3 µM (inactive) |
| COc1ccccc1[C@@H]1CCC2CC[C@@H](c3ccccc3OC)[N+]21Cc1ccccc1 (some centres not stated) | 2.25 µM (inactive) | 0.893 µM (active) | 0.223 µM (active) | 3.76 µM | 0.968 µM (active) | 0.581 µM (active) | 1.95 µM (inactive) | 0.585 µM (active) | 2.3 µM (inactive) | 0.948 µM (active) |  | 2 µM (inactive) |  | 3.56 µM (inactive) | 0.982 µM (active) |  | 1.33 µM (inactive) | 1.64 µM (inactive) | 0.521 µM (active) |
| N#CCN1c2ccccc2CCC1Cl (configuration not stated) | > 10 µM (inactive) | > 10 µM (inactive) | > 10 µM (inactive) | > 10 µM | > 10 µM (inactive) | > 10 µM (inactive) | > 10 µM (inactive) | > 10 µM (inactive) | > 10 µM (inactive) | > 10 µM (inactive) | > 10 µM (inactive) |  | > 10 µM (inactive) | > 10 µM (inactive) | > 10 µM (inactive) | > 10 µM (inactive) | > 10 µM (inactive) | > 10 µM (inactive) | > 10 µM (inactive) |
| CC1=NN(c2ccc(C)cc2)C2(C1)SCC(=O)N2c1nc2ccccc2s1 (configuration not stated) | 19.6 µM (inactive) | 24.2 µM (inactive) | 21.9 µM (inactive) | 20.5 µM | 49.3 µM (inactive) | 4.7 µM (inactive) | 15.5 µM (inactive) | 16.4 µM (inactive) | 23.5 µM (inactive) | 24 µM (inactive) | 13.4 µM (inactive) | 13.3 µM (inactive) | 19 µM (inactive) | 24.2 µM (inactive) | 33.1 µM (inactive) | 14.3 µM (inactive) | 16.7 µM (inactive) | 20.2 µM (inactive) | 19.5 µM (inactive) |
| CC1(C)OC[C@H](COCOP2(=O)Oc3ccc4ccccc4c3-c3c(ccc4ccccc34)O2)O1 | 16.9 µM (inactive) | 16.6 µM (inactive) | > 10 µM (inactive) | 15.3 µM | 14.6 µM (inactive) | 3.48 µM (inactive) | 15.7 µM (inactive) | 13.7 µM (inactive) | 21.3 µM (inactive) | 15.6 µM (inactive) | 16.7 µM (inactive) | > 10 µM (inactive) | 18.8 µM (inactive) | 13.3 µM (inactive) | 19.1 µM (inactive) | 17.2 µM (inactive) |  |  |  |
| COC(=O)/C=C\C(C#N)(C#N)/N=C/c1ccc(Br)cc1 | 16.2 µM (inactive) | 11.2 µM (inactive) | 14.2 µM (inactive) | 2.94 µM | 1.99 µM (inactive) | 3.52 µM (inactive) | 4.08 µM (inactive) | 7 µM (inactive) | 3.24 µM (inactive) | 14.9 µM (inactive) | 19.6 µM (inactive) | 4.92 µM (inactive) |  | 15.4 µM (inactive) | 2.74 µM (inactive) | 11.3 µM (inactive) | 0.489 µM (active) | 8.83 µM (inactive) | 14.8 µM (inactive) |
| COc1cc(=O)oc(/C=C/C=C/C=C/C(C)=C\C2(C)OC(C)C(C)(O)C2O)c1C (configuration not stated) | > 100 µM (inactive) | > 100 µM (inactive) | > 100 µM (inactive) | > 100 µM | > 100 µM (inactive) | > 100 µM (inactive) | > 100 µM (inactive) | > 100 µM (inactive) |  | > 100 µM (inactive) | > 100 µM (inactive) |  | > 100 µM (inactive) | > 100 µM (inactive) | > 100 µM (inactive) | > 100 µM (inactive) |  |  | > 100 µM (inactive) |
| CCOC(=O)C1(O)C(=O)C2=C3C(=O)OC(C4OC(=O)c5c(c(O)c(O)c(O)c5C31)-c1c(cc(O)c(O)c1O)C(=O)OC1COC(=O)c3cc(O)c(O)c(O)c3-c3c(cc(O)c(O)c3O)C(=O)OC14)[C@@H]2O (some centres not stated) | > 100 µM (inactive) | 18.8 µM (inactive) | 13.4 µM (inactive) | 17.6 µM | 23 µM (inactive) | 18.7 µM (inactive) | 15.2 µM (inactive) | 13 µM (inactive) | 26.9 µM (inactive) | 16.3 µM (inactive) | 29.3 µM (inactive) | 17.5 µM (inactive) |  | > 100 µM (inactive) | > 100 µM (inactive) | 20 µM (inactive) | 21 µM (inactive) | 17.6 µM (inactive) | 28.5 µM (inactive) |
| O=[N+]([O-])c1ccc(OCc2nnc(CCCCCCCCc3nnc(COc4ccc([N+](=O)[O-])cc4)o3)o2)cc1 | > 100 µM (inactive) | > 100 µM (inactive) | > 100 µM (inactive) | > 100 µM | > 100 µM (inactive) | > 100 µM (inactive) | 32.7 µM (inactive) | > 100 µM (inactive) | > 100 µM (inactive) | 81.5 µM (inactive) | > 100 µM (inactive) | 25.1 µM (inactive) |  | > 100 µM (inactive) | > 100 µM (inactive) | > 100 µM (inactive) | > 100 µM (inactive) | > 100 µM (inactive) | > 100 µM (inactive) |
| COC(=O)C1=C(CCCCO[Si](C)(C)C(C)(C)C)NC(=O)N2[C@H](CCOCc3ccccc3)CC[C@@H]12 | > 100 µM (inactive) | 45.8 µM (inactive) | 31.5 µM (inactive) | 40.6 µM | 32.1 µM (inactive) | 34.4 µM (inactive) | 44.9 µM (inactive) | 39.2 µM (inactive) | 40 µM (inactive) | 17.6 µM (inactive) | 38 µM (inactive) |  | 33.7 µM (inactive) | > 100 µM (inactive) | 78.3 µM (inactive) | > 100 µM (inactive) | 15.5 µM (inactive) | > 100 µM (inactive) | 24.7 µM (inactive) |
| COC(=O)/N=[N+](\[O-])C(c1ccc(OC)cc1)C1CCCCC1 (configuration not stated) | 6.67 µM (inactive) | 8.39 µM (inactive) | 0.991 µM (active) | 1.26 µM | 5.85 µM (inactive) | 7.35 µM (inactive) | 3 µM (inactive) | 5.01 µM (inactive) | 2.02 µM (inactive) | 0.664 µM (active) | 1.39 µM (inactive) | 9.18 µM (inactive) | 12.3 µM (inactive) | 13.6 µM (inactive) | 9.53 µM (inactive) | 6.03 µM (inactive) | 1.03 µM (active) | 0.802 µM (active) | 1.47 µM (inactive) |
| CC(CCOc1ccc2ccc(=O)oc2c1)C1=CC(=O)C(C)(C)O1 (configuration not stated) | 1.95 µM (inactive) | 2.72 µM (inactive) | 2.68 µM (inactive) | 1.71 µM | 3.56 µM (inactive) | 3.61 µM (inactive) | 3.15 µM (inactive) | 2.56 µM (inactive) | 3.04 µM (inactive) | 2.81 µM (inactive) | 1.86 µM (inactive) |  | 1.69 µM (inactive) | 2.9 µM (inactive) | 3.09 µM (inactive) | 3.72 µM (inactive) | 1.51 µM (inactive) | 5.73 µM (inactive) | 6.73 µM (inactive) |
| CC1(C)CCC[C@]2(C)[C@@H]1CC[C@@]13O[C@@H]1C1=C(CO)C(=O)O[C@]14O[C@@H]4[C@@H]23 | 17.3 µM (inactive) | 14.7 µM (inactive) | 11.9 µM (inactive) | 14.5 µM | 14 µM (inactive) | 15.3 µM (inactive) | 15.7 µM (inactive) | 10.4 µM (inactive) | 17 µM (inactive) | 11.7 µM (inactive) | 14.9 µM (inactive) | 8.71 µM (inactive) | 17.3 µM (inactive) | 15.6 µM (inactive) | 14.8 µM (inactive) | 10.9 µM (inactive) | 7.55 µM (inactive) | 8.24 µM (inactive) | 14 µM (inactive) |
| Oc1cc2c3c(c1)c1cc4c(cc1c[n+]3CC2)OCO4 | 35.4 µM (inactive) | 1.77 µM (inactive) | 7.73 µM (inactive) | 13.6 µM | 15.2 µM (inactive) | 7.69 µM (inactive) | 2.79 µM (inactive) | 5.5 µM (inactive) | 1.16 µM (inactive) | 1.9 µM (inactive) | 2.43 µM (inactive) | 24.5 µM (inactive) | 2.28 µM (inactive) | 7.82 µM (inactive) | 1.8 µM (inactive) | 7.83 µM (inactive) | 0.492 µM (active) | 3.64 µM (inactive) | 8.83 µM (inactive) |
